# Laboratory results from patent publication US12649746B2, “Ketorolaco derivative, pharmaceutical composition and preparation method therefor and use thereof” (NANJING HERON PHARMACEUTICAL SCIENCE AND TECHNOLOGY CO., …, priority 2020, dated 2026).
# Assay: Stability study of levorotatory enantiomer of compounds in solvent (MCT)
# Format: physicochemical
# Settings: MCT solution, 5° C., Day 5
# Procedure: 2. Test method: the samples were prepared according to Table 2, wherein each sample was dispensed into 10 vials according to the lofting volume, and the samples were lofted according to Table 3.
# 4. The related substance was determined according to high performance liquid chromatography (General Chapter 0512, China Pharmacopoeia, 2015 Edition).
# (1) Chromatographic conditions: the chromatography column was Agilent ZORBAX SB-C8, 4.6 mm×250 mm, 5 μm, and 0.1% phosphoric acid solution-acetonitrile (50:50) was used as a mobile phase; the detection wavelength was […]; the flow rate was 1.0 mL/min; the column temperature was 40° C., and linear gradient elution was performed according to the following table;
# (§1) (2) Determination method: an appropriate amount of the product was weighed precisely, a diluent (absolute ethanol) was added and shaken to dissolve, and quantitatively diluted to give a solution containing 0.4 mg per 1 mL, the solution was […] by vortex for 30 s, and filtered with PTFE filter membrane (0.22 μm, JINTENG), and the filtrate was collected as a test sample solution. 10 μL of the solution was weighed precisely and injected into a liquid chromatograph, and a chromatogram was recorded; if an impurity peak existed in the chromatogram of the test sample solution, calculation was performed according to a peak area normalization method to give the target product.
# 5. Isomer determination was performed according to high performance liquid chromatography (General Chapter 0512, China Pharmacopoeia, 2015 Edition).
# (1) Chromatographic conditions: cellulose-tris(3,5-dimethylphenylcarbamate)silica gel was used as filler (Chiralcel OD-H, 250×4.6 mm, 5 μm); n-hexane-isopropanol (90:10) was used as a mobile phase, and isocratic elution was performed for 25 min at a flow rate of 1.0 mL/min; the column temperature was 35° C.; the detection wavelength was 310 nm.
# as §1, with “(n-hexane-isopropanol (90:10))” for “(absolute ethanol)”, “about 1.0” for “0.4”, “20” for “10”, “isomer” for “impurity”
Ketorolac (%),Purity (%),SMILES
0.02,99.46,CCOC(=O)OC(CC)OC(=O)[C@H]1CCn2c(C(=O)c3ccccc3)ccc21 (stereo partly drawn) [N15(S)]

# Same assay, conditions: MCT solution, 5° C., Day 15
Ketorolac (%),Purity (%),SMILES
0.02,99.45,CCOC(=O)OC(CC)OC(=O)[C@H]1CCn2c(C(=O)c3ccccc3)ccc21 (stereo partly drawn) [N15(S)]

# Same assay, conditions: MCT solution, 5° C., Day 30
Ketorolac (%),Purity (%),SMILES
0.03,99.38,CCOC(=O)OC(CC)OC(=O)[C@H]1CCn2c(C(=O)c3ccccc3)ccc21 (stereo partly drawn) [N15(S)]

# Same assay, conditions: MCT solution, 5° C., day 0
Ketorolac (%),Purity (%),SMILES
0.03,99.48,CCOC(=O)OC(CC)OC(=O)[C@H]1CCn2c(C(=O)c3ccccc3)ccc21 (stereo partly drawn) [N15(S)]

# Same assay, conditions: MCT solution, 25° C., Day 5
Ketorolac (%),Purity (%),SMILES
0.03,99.42,CCOC(=O)OC(CC)OC(=O)[C@H]1CCn2c(C(=O)c3ccccc3)ccc21 (stereo partly drawn) [N15(S)]

# Same assay, conditions: MCT solution, 25° C., Day 15
Ketorolac (%),Purity (%),SMILES
0.03,99.41,CCOC(=O)OC(CC)OC(=O)[C@H]1CCn2c(C(=O)c3ccccc3)ccc21 (stereo partly drawn) [N15(S)]

# Same assay, conditions: MCT solution, 25° C., Day 30
Ketorolac (%),Purity (%),SMILES
0.05,99.33,CCOC(=O)OC(CC)OC(=O)[C@H]1CCn2c(C(=O)c3ccccc3)ccc21 (stereo partly drawn) [N15(S)]

# Same assay, conditions: MCT solution, 25° C., day 0
Ketorolac (%),Purity (%),SMILES
0.03,99.48,CCOC(=O)OC(CC)OC(=O)[C@H]1CCn2c(C(=O)c3ccccc3)ccc21 (stereo partly drawn) [N15(S)]

# Same assay, conditions: MCT solution, 60° C., Day 5
Ketorolac (%),Purity (%),SMILES
0.06,99.35,CCOC(=O)OC(CC)OC(=O)[C@H]1CCn2c(C(=O)c3ccccc3)ccc21 (stereo partly drawn) [N15(S)]

# Same assay, conditions: MCT solution, 60° C., Day 15
Ketorolac (%),Purity (%),SMILES
0.17,99.21,CCOC(=O)OC(CC)OC(=O)[C@H]1CCn2c(C(=O)c3ccccc3)ccc21 (stereo partly drawn) [N15(S)]

# Same assay, conditions: MCT solution, 60° C., Day 30
Ketorolac (%),Purity (%),SMILES
0.35,98.92,CCOC(=O)OC(CC)OC(=O)[C@H]1CCn2c(C(=O)c3ccccc3)ccc21 (stereo partly drawn) [N15(S)]

# Same assay, conditions: MCT solution, 60° C., day 0
Ketorolac (%),Purity (%),SMILES
0.03,99.48,CCOC(=O)OC(CC)OC(=O)[C@H]1CCn2c(C(=O)c3ccccc3)ccc21 (stereo partly drawn) [N15(S)]

# Same assay, conditions: dextrorotatory form, MCT solution, 5° C., Day 5
row,Isomer (%),SMILES
1,4.58,CCOC(=O)OC(CC)OC(=O)[C@H]1CCn2c(C(=O)c3ccccc3)ccc21 (stereo partly drawn) [N15(S)]

# Same assay, conditions: dextrorotatory form, MCT solution, 5° C., Day 15
row,Isomer (%),SMILES
1,4.73,CCOC(=O)OC(CC)OC(=O)[C@H]1CCn2c(C(=O)c3ccccc3)ccc21 (stereo partly drawn) [N15(S)]

# Same assay, conditions: dextrorotatory form, MCT solution, 5° C., Day 30
row,Isomer (%),SMILES
1,4.62,CCOC(=O)OC(CC)OC(=O)[C@H]1CCn2c(C(=O)c3ccccc3)ccc21 (stereo partly drawn) [N15(S)]

# Same assay, conditions: dextrorotatory form, MCT solution, 5° C., day 0
row,Isomer (%),SMILES
1,4.59,CCOC(=O)OC(CC)OC(=O)[C@H]1CCn2c(C(=O)c3ccccc3)ccc21 (stereo partly drawn) [N15(S)]

# Same assay, conditions: dextrorotatory form, MCT solution, 25° C., Day 5
row,Isomer (%),SMILES
1,4.58,CCOC(=O)OC(CC)OC(=O)[C@H]1CCn2c(C(=O)c3ccccc3)ccc21 (stereo partly drawn) [N15(S)]

# Same assay, conditions: dextrorotatory form, MCT solution, 25° C., Day 15
row,Isomer (%),SMILES
1,4.72,CCOC(=O)OC(CC)OC(=O)[C@H]1CCn2c(C(=O)c3ccccc3)ccc21 (stereo partly drawn) [N15(S)]

# Same assay, conditions: dextrorotatory form, MCT solution, 25° C., Day 30
row,Isomer (%),SMILES
1,4.64,CCOC(=O)OC(CC)OC(=O)[C@H]1CCn2c(C(=O)c3ccccc3)ccc21 (stereo partly drawn) [N15(S)]

# Same assay, conditions: dextrorotatory form, MCT solution, 25° C., day 0
row,Isomer (%),SMILES
1,4.59,CCOC(=O)OC(CC)OC(=O)[C@H]1CCn2c(C(=O)c3ccccc3)ccc21 (stereo partly drawn) [N15(S)]

# Same assay, conditions: dextrorotatory form, MCT solution, 60° C., Day 5
row,Isomer (%),SMILES
1,4.59,CCOC(=O)OC(CC)OC(=O)[C@H]1CCn2c(C(=O)c3ccccc3)ccc21 (stereo partly drawn) [N15(S)]

# Same assay, conditions: dextrorotatory form, MCT solution, 60° C., Day 15
row,Isomer (%),SMILES
1,4.75,CCOC(=O)OC(CC)OC(=O)[C@H]1CCn2c(C(=O)c3ccccc3)ccc21 (stereo partly drawn) [N15(S)]

# Same assay, conditions: dextrorotatory form, MCT solution, 60° C., Day 30
row,Isomer (%),SMILES
1,4.63,CCOC(=O)OC(CC)OC(=O)[C@H]1CCn2c(C(=O)c3ccccc3)ccc21 (stereo partly drawn) [N15(S)]

# Same assay, conditions: dextrorotatory form, MCT solution, 60° C., day 0
row,Isomer (%),SMILES
1,4.59,CCOC(=O)OC(CC)OC(=O)[C@H]1CCn2c(C(=O)c3ccccc3)ccc21 (stereo partly drawn) [N15(S)]
